These results are taken from US9925198B2, “Pharmaceutical composition for preventing or treating hearing loss, comprising carbenoxolone or its pharmaceutically acceptable salts as effective compound” (AJOU UNIVERSITY INDUSTRY-ACADEMIC COOPERATION FOUNDATION, priority 2015, dated 2018).

“And” between values parts separate entries of the source, which are not always exact repeats. Equal entries are not always repeated. “Also recorded” adds a separate entry of the source. Where two headings read alike, the source gives them in different places.

The subject of data set [1] is auditory sensory hair cell stereocilia. The data set can be described thus: Phalloidin staining of auditory sensory hair cell stereocilia in cochlea. The format is in vivo, SD-rat. The note with it: basal turn (32 kHz) and middle turn (16 kHz). The protocol: Phalloidin staining was performed on auditory sensory hair cell stereocilia markers of the SD-rats administered with drugs by using the method described above to confirm degrees of loss or damage on auditory cells at sites of the basal turn (32 kHz) and the middle turn (16 kHz).

The subject of data set [2] is ototoxic hearing loss induced by cisplatin. The data set can be described thus: Auditory brainstem response (ABR) test, hearing threshold in rats with cisplatin-induced ototoxic hearing loss. The conditions noted are these: for hearing threshold (ABR) at 16 kHz / hearing threshold (ABR) at 32 kHz: measured 5 days after; for hearing threshold (ABR) at 16 kHz: tone burst 16 kHz; for hearing threshold (ABR) at 32 kHz: tone burst 32 kHz. The class given is in vivo, SD-rat. The protocol:
Auditory acuity was evaluated by performing an auditory brainstem response (ABR) test on the SD-rat before and after the drug administration. The ABR test was determines the minimum stimuli intensity (dB) that evokes the waveform of wave V by providing tone burst of 16 kHz and 32 kHz using a TDT ABR device as a hearing threshold, and the auditory acuities were measured 1 day before the drug administration and 5 days after the drug administration.

In data set [3] the test system is auditory outer hair cells. Kind of data set: Scanning electron microscope (SEM) analysis of cochlea, auditory outer hair cell damage. The format is in vivo, SD-rat. The conditions noted are these: basal turn (32 kHz) and middle turn (16 kHz). From the text: Also, degrees of loss and damage on auditory cells at the basal turn (32 kHz) and the middle turn (16 kHz) in cochlea were confirmed by using a scanning electron microscope (SEM) to analyze the shape of cochlea.

In data set [4] the test system is cisplatin-takers. The note with it: cited from earlier work.
Setting [5] is: cisplatin 16 mg/kg + 18α-GA 100 mg/kg.
The mark [6] stands for this setting: cisplatin 16 mg/kg i.p. once + 18α-GA 100 mg/kg daily 2 days before and after cisplatin.
Where [7] appears, read: cisplatin 16 mg/kg + carbenoxolone sodium 50 mg/kg, vs cisplatin alone.
Setting [8] is: cisplatin 16 mg/kg i.p. once + carbenoxolone sodium 50 mg/kg daily 2 days before and after cisplatin.
The mark [9] stands for this setting: cisplatin alone 16 mg/kg, compared to control group.

Take `CC1(C)[C@@H](O)CC[C@]2(C)[C@H]3C(=O)C=C4[C@H]5C[C@@](C)(C(=O)O)CC[C@]5(C)CC[C@@]4(C)[C@]3(C)CC[C@@H]12` [18α-GA, 18α-glycyrrhetinic acid]: the “damage prevention effect (phalloidin staining, FIG. 3)” value in data set [1] (setting [5]) is listed as “not exhibited”. For the same compound, the “hearing thresholds compared with the cisplatin-treated group” value in data set [2] (cisplatin 16 mg/kg + 18α-GA 100 mg/kg, 16 kHz and 32 kHz) was “no significant difference; also recorded: did not show significant difference”. Further, in data set [2] (setting [6]), the “hearing threshold (ABR) at 16 kHz” value was 49.3±4.8 dB and 46.2±4.1 dB; the “hearing threshold (ABR) at 32 kHz” value came to 46.2±4.1 dB. Further, the “damage prevention effect (SEM, FIG. 4)” value in data set [3] (setting [5]) was “not confirmed”.
As for `CC1(C)[C@@H](OC(=O)CCC(=O)O)CC[C@]2(C)[C@H]3C(=O)C=C4[C@@H]5C[C@@](C)(C(=O)O)CC[C@]5(C)CC[C@@]4(C)[C@]3(C)CC[C@@H]12` [carbenoxolone sodium], the “preservation of outer hair cells (phalloidin staining, FIG. 3)” value in data set [1] (setting [7]) was “significantly preserved”. In addition, in data set [2] (setting [8]), the “hearing threshold (ABR) at 16 kHz” value was found to be 26.3±7.5 dB and the “hearing threshold (ABR) at 32 kHz” value came to 28.8±4.8 dB. The “preservation of outer hair cells (SEM, FIG. 4)” value in data set [3] (setting [7]) is “significantly preserved”.
Turning to `N.N.[Cl][Pt][Cl]` [cisplatin], the “stereocilia damage (phalloidin staining, FIG. 3)” value in data set [1] (setting [9]) is “a number of stereocilia damages were observed”. The “auditory outer hair cell damage (SEM, FIG. 4)” value in data set [3] (setting [9]) is listed as “damages on auditory outer hair cells were observed in numbers; also recorded: a number of auditory outer hair cell damages were observed”. Further, the “auditory impairment occurrence frequency” value is listed as “about 50%” in data set [4] (children) and “about 30%” in data set [4] (cisplatin-takers).
